# Experimental data published in the supplement of paper PMC8633005.
# Experiments:
# Assay in all cases: drug sensitivity score (DSS) (DSS (unitless, 0-50 scale)); higher = more sensitive (stronger viability inhibition); extreme values may be limits of the assay
# Settings in all cases: 72 h; culture: 2D
# Bowes = tested on: Bowes
# In short: (§1)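 Viability was measured by CellTiter-Glo luminescence after 72 h at 37 °C in 384-well plates holding a 527-compound oncology library, with patient-derived melanoma cultures (1000–1500 cells per well) and melanoma cell lines grown in 2D. Every compound was tested at five concentrations spanning a 10,000-fold range. The drug sensitivity score, a modified area under the curve, came from dose-response curves fitted with in-house Breeze software.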
# WM852 = tested on: WM852
# In short: as §1
# FM-MEL-2 = tested on: FM-MEL-2
# In short: as §1
# WM165 = tested on: WM165
# In short: as §1
# FM-MEL-3 = tested on: FM-MEL-3
# In short: as §1
# SK-MEL-2 = tested on: SK-MEL-2
# In short: as §1
# FM-MEL-6 = tested on: FM-MEL-6
# In short: as §1
# SK-MEL-28 = tested on: SK-MEL-28
# In short: as §1
SMILES,drug sensitivity score (Bowes),drug sensitivity score (WM852),drug sensitivity score (FM-MEL-2),drug sensitivity score (WM165),drug sensitivity score (FM-MEL-3),drug sensitivity score (SK-MEL-2),drug sensitivity score (FM-MEL-6),drug sensitivity score (SK-MEL-28)
CN(Cc1cnc2nc(N)nc(N)c2n1)c1ccc(C(=O)N[C@@H](CCC(=O)O)C(=O)O)cc1 [Methotrexate],27.7,0,0,14.4,0,0,0,9
O=C(O)CC1CC(c2ccccc2)=NO1 (stereo unspecified) [VGX-1027],0,0,0,0,0,0,0,0
CCNC(=O)CCC/C=C\C[C@@H]1[C@@H](/C=C/[C@@H](O)CCc2ccccc2)[C@H](O)C[C@@H]1O [Bimatoprost],0,0,0,0,0,0,0,0
CC(C)N(CCCNC(=O)Nc1ccc(C(C)(C)C)cc1)C[C@H]1O[C@@H](n2cc(Br)c3c(N)ncnc32)[C@H](O)[C@@H]1O [SGC0946],0,2,1.4,0,6.1,0,0.8,0
CC(C)Oc1ccc(C(=O)N[C@H](CNC(=O)CN(C)C)Cc2ccc(-c3cn4cccc([C@H](C)O)c4n3)cc2)cc1Cl,19.2,9.5,7.3,13.7,6.3,13.5,4.7,5.3
COC(=O)c1ccc2c(c1)[nH]c1ncnc(NCCCN3CCCCC3)c12 [UM729],0,0,1,0,2.5,0,0,0.6
C[C@@]1(C(=O)Nc2ccc(F)nc2)CCCN1c1nc(Nc2cc(C3CC3)n[nH]2)c2cccn2n1,11.7,6.9,5,13.4,17.9,2.9,6.1,2
CCn1cc(-c2ccnc3[nH]c(-c4cccc(CN(C)C)c4)cc23)c(-c2ccc(NC(=O)N(C)C)cc2)n1,2.7,0,0,6,0,0,0,0.1
CN(CC(=O)N(Cc1ccc(C2CCCCC2)cc1)c1ccc(C(=O)O)cc1)S(=O)(=O)c1c(F)c(F)c(F)c(F)c1F [SH-4-54],7.1,6.4,5.2,16.1,8.2,5.1,5.8,5.4
CN1CCN(c2cc(C(=O)Nc3ccc4c(c3)-c3c(c(C(N)=O)nn3-c3ccc(F)cc3)CC4)c(Cl)cn2)CC1 [PHA 408],0.5,5.3,5.7,3.4,1.1,4.2,5.2,0.1
Cc1ccc(C(=O)Nc2cccc(C(F)(F)F)c2)cc1Nc1nc(-c2cccnc2)nc2c1cnn2C [NVP-BHG712],0,4.7,6.8,1.9,10.6,0,3.6,1.3
CN1C(=O)N[C@H](Cc2c[nH]c3c(Cl)cccc23)C1=O [Necrostatin 2],0,0,0,0,0,0,0,0
COC(=O)c1ccc([C@H]2c3[nH]c4ccccc4c3C[C@H](C(=O)OC)N2C(=O)CCl)cc1 [RSL3],0,0,0,0,0,0,0,0
CC(=O)[C@]1(O)Cc2c(O)c3c(c(O)c2[C@@H](O[C@H]2C[C@H](N)[C@H](O)[C@H](C)O2)C1)C(=O)c1ccccc1C3=O [Idarubicin],5.4,4.8,8.4,15.4,10.9,9.7,8.1,8.4
N#CC1(c2ccc(NC(=O)c3cccnc3NCc3ccncc3)cc2)CCCC1 [Apatinib],0,0,0.1,0,0,0,0,0
Cn1cc(-c2cnn3c(N)c(Br)c([C@@H]4CCCNC4)nc23)cn1 [MK-8776],0.9,1.9,0,0,1.7,2,0,0
C[C@@H](Oc1cc(-c2cnn(C3CCNCC3)c2)cnc1N)c1c(Cl)ccc(F)c1Cl [Crizotinib],0,0,0,0,0,0,0,0
CO[C@H]1C[C@@H]2CC[C@@H](C)[C@@](O)(O2)C(=O)C(=O)N2CCCC[C@H]2C(=O)O[C@H]([C@H](C)C[C@@H]2CC[C@@H](OC(=O)C(C)(CO)CO)[C@H](OC)C2)CC(=O)[C@H](C)/C=C(\C)[C@@H](O)[C@@H](OC)C(=O)[C@H](C)C[C@H](C)/C=C/C=C/C=C/1C [Temsirolimus],0,0,4,6,0,0,4.4,2.5
CNCc1ccc(-c2[nH]c3cc(F)cc4c3c2CCNC4=O)cc1 [Rucaparib],0.6,0,0.8,3.8,0.5,0,0.7,0
CS(=O)(=O)c1ccc(-c2cnc(N)c(C(=O)Nc3ccccc3)n2)cc1 [VE-821],3.1,2.6,0,0,1.6,0,0,0
Cc1ccc(NC(=O)c2ccc(CN3CCN(C)CC3)cc2)cc1Nc1nccc(-c2cccnc2)n1 [Imatinib],1,0.7,0.8,0.1,0,0,0,0.2

SMILES,drug sensitivity score (Bowes),drug sensitivity score (WM852),drug sensitivity score (FM-MEL-2),drug sensitivity score (WM165),drug sensitivity score (FM-MEL-3),drug sensitivity score (SK-MEL-2),drug sensitivity score (FM-MEL-6),drug sensitivity score (SK-MEL-28)
Cc1c(-c2ccc(N3CCc4cccc(C(=O)Nc5nc6ccccc6s5)c4C3)nc2C(=O)O)cnn1CC12CC3CC(CC(C3)C1)C2,0,0,1.5,0,6.7,0,0,0
CC(C)(O)CNc1nc(Nc2ccnc(C(F)(F)F)c2)nc(-c2cccc(C(F)(F)F)n2)n1 [Enasidenib],0,0,3.1,0,0,1.9,0,0
COc1cc(N2CCC(N3CCN(C)CC3)CC2)ccc1Nc1ncnc(Nc2ccccc2S(=O)(=O)C(C)C)n1 [ASP3026],4.8,5.2,2.4,5.5,2.6,2.7,4.4,2
O=C(O)c1ccc(O)c2ncccc12 [IOX-1],0,0,0.4,4.3,0.8,0,0.9,0.8
CC(C)[C@H](C(=O)Nc1ccc(C(=O)NO)cc1)c1ccccc1 [AR-42],6,3.9,9.8,14,11.8,12.7,11.6,10.3
CNC(=O)c1ccc2cc([C@@]3(O)CCn4cncc43)ccc2c1 [Orteronel],0,0,0,0,0,0,0,0
COc1cc(Nc2ncc(F)c(Nc3ccc4c(n3)N(COP(=O)(O)O)C(=O)C(C)(C)O4)n2)cc(OC)c1OC [Fostamatinib],2,0.5,4.6,3.5,2.1,0,1.9,2
N#Cc1ccc(C(c2ccc(C#N)cc2)n2cncn2)cc1 [Letrozole],0,0,0,0,0,0,0,0
CNC(=O)c1ccc(N2C(=S)N(c3cnc(C#N)c(C(F)(F)F)c3)C(=O)C23CCC3)cc1F [Apalutamide],0,0,0,0,0,0,0,0
C[C@@H](C(=O)O)c1ccc(-c2ccccc2)c(F)c1 [Tarenflurbil],0,0,0,0,0,0,0,0
COC(=O)C[C@](O)(CCCC(C)(C)O)C(=O)O[C@@H]1C(OC)=C[C@]23CCCN2CCc2cc4c(cc2[C@H]13)OCO4 [Omacetaxine],29.1,26.1,20.4,27.2,25.9,18.2,28.5,22.4
COc1ccc(CCc2nc3cc(-c4c(C)noc4C)ccc3n2C[C@H](C)N2CCOCC2)cc1Cl [SGC-CBP30],3.6,0,4.9,5.2,7.4,0.1,3,0.9
Nc1ccn([C@@H]2O[C@H](CO)[C@@H](O)C2(F)F)c(=O)n1 [Gemcitabine],0,0,4.3,18.9,8.6,6.3,10.3,13.7
CC1(C)CNc2cc(NC(=O)c3cccnc3NCc3ccncc3)ccc21 [Motesanib],0,0,0,0,0,0,0,0
O=c1[nH]cc(F)c(=O)[nH]1 [Fluorouracil],0,0,1.7,2.3,0.4,0,0.7,0.7
COc1cc(Nc2ncc(F)c(Nc3ccc4c(n3)NC(=O)C(C)(C)O4)n2)cc(OC)c1OC [Tamatinib],1.3,0,5.5,0.9,2.7,0,0,0
Cc1nc(-c2cn3c(n2)-c2ccc(-c4cnn(C(C)(C)C(N)=O)c4)cc2OCC3)n(C(C)C)n1 [Taselisib],2.8,3.5,7.4,4.2,4.7,0.2,6.6,5.6
CCn1c(-c2nonc2N)nc2cnc(Oc3cccc(NC(=O)c4ccc(OCCN5CCOCC5)cc4)c3)cc21,0,4.6,2.6,5.2,4.3,0,0.3,1.1
CCCCCCCCCCCCCCCCCCOP(=O)([O-])OC1CC[N+](C)(C)CC1 [Perifosine],0,0,0.2,0,0.4,0,0,0
Nc1nc(OCc2cc(Br)cs2)c2[nH]cnc2n1 [Lomeguatrib],0,0,0,0,0,0,0,0
C[C@H]1Oc2cc(cnc2N)-c2c(nn(C)c2C#N)CN(C)C(=O)c2ccc(F)cc21,0.1,0,0.9,0.2,2.4,0,0.6,0
